Assay results published in PMC5982655, “Interaction of the New Monofunctional Anticancer Agent Phenanthriplatin With Transporters for Organic Cations” (Frontiers in Chemistry, 2018).
pIC50: −log10 of the molar value.

What was measured:
[1] = biological target: T1, mOCT2 (Mus musculus, UniProt O70577); test: Inhibition of ASP+ uptake in HEK 293 cells expressing mOCT2; type: cell-based, murine; conditions: HEK 293 mOCT2, 1 μM ASP+
T1 construct: expressed in transfected cells
T1 sequence (O70577 1-553): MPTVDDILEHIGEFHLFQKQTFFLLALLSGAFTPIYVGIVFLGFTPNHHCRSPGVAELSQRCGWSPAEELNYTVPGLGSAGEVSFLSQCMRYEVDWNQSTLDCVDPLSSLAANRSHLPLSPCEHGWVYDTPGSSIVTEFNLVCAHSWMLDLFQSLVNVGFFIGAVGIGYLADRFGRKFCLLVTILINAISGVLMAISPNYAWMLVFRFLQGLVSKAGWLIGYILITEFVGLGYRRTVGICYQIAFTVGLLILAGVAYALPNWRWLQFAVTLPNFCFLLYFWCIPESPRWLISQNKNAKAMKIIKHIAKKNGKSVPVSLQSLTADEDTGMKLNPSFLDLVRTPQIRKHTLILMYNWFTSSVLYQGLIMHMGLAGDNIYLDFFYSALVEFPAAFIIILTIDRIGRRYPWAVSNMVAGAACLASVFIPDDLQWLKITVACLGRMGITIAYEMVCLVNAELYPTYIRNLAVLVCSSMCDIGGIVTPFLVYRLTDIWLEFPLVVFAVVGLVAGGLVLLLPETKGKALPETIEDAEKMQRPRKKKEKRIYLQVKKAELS
Experimental: The interaction of phenanthriplatin with transporters for organic cations (OCT1-3, MATE1, and MATE2K) was investigated by measuring its effects on the uptake of the fluorescent organic cation 4-(4-dimethylamino)styryl-N-methylpyridinium (ASP^+). Microfluorometric measurements of ASP^+ uptake were performed with a fluorescence plate reader (Infinity 200, Tecan, Crailsheim, Germany; excitation at 465 nm, emission at 590 nm) as described previously for cultured HEK 293 cells (Wilde et al., [2009]). Before measurements, the culture medium in the wells of the 96 well microtiter plate containing HEK 293 cells was replaced by a HCO3- -free Ringer-like solution containing (in mM) NaCl 145, K2HPO4 1.6, KH2PO4 0.4, D-glucose 5, MgCl2 1, calcium gluconate 1.3, and pH adjusted to 7.4. Fluorescence was measured dynamically at 37°C in each well before and after ASP^+ addition to HCO3- -free Ringer-like solution, alone or together with increasing phenanthriplatin concentrations, and plotted versus time. ASP^+ (final concentration 1 or 10 μM for experiments with OCTs or MATEs, respectively) was added after the third sampling interval. Emission from the complete area of the well bottom was analyzed four times and averaged for each well. […] Background fluorescence was measured for each plate in wells with identical solutions containing no cells and subtracted from each well containing cells. […]

[2] = biological target: T2, hMATE1 (Homo sapiens, UniProt Q96FL8); test: Inhibition of ASP+ uptake in HEK 293 cells expressing hMATE1; type: cell-based; conditions: HEK 293 hMATE1, 10 μM ASP+
T2 construct: expressed in transfected cells
T2 sequence (Q96FL8 1-570): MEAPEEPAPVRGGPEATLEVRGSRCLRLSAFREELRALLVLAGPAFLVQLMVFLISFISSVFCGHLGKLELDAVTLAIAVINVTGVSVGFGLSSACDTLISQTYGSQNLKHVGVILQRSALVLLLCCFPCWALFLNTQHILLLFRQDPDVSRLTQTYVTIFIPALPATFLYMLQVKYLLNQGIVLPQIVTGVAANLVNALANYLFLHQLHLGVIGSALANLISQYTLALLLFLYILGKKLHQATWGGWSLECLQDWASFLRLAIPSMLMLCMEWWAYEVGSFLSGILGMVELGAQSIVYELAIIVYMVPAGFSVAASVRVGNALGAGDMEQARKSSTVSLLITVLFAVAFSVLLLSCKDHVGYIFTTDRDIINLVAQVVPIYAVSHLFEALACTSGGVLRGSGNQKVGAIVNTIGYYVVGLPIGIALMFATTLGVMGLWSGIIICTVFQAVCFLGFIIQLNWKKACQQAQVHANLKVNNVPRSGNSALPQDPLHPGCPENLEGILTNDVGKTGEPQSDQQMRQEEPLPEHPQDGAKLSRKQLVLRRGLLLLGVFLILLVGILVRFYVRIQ
Experimental: The interaction of phenanthriplatin with transporters for organic cations (OCT1-3, MATE1, and MATE2K) was investigated by measuring its effects on the uptake of the fluorescent organic cation 4-(4-dimethylamino)styryl-N-methylpyridinium (ASP^+). Microfluorometric measurements of ASP^+ uptake were performed with a fluorescence plate reader (Infinity 200, Tecan, Crailsheim, Germany; excitation at 465 nm, emission at 590 nm) as described previously for cultured HEK 293 cells (Wilde et al., [2009]). Before measurements, the culture medium in the wells of the 96 well microtiter plate containing HEK 293 cells was replaced by a HCO3- -free Ringer-like solution containing (in mM) NaCl 145, K2HPO4 1.6, KH2PO4 0.4, D-glucose 5, MgCl2 1, calcium gluconate 1.3, and pH adjusted to 7.4. Fluorescence was measured dynamically at 37°C in each well before and after ASP^+ addition to HCO3- -free Ringer-like solution, alone or together with increasing phenanthriplatin concentrations, and plotted versus time. ASP^+ (final concentration 1 or 10 μM for experiments with OCTs or MATEs, respectively) was added after the third sampling interval. Emission from the complete area of the well bottom was analyzed four times and averaged for each well. […] Background fluorescence was measured for each plate in wells with identical solutions containing no cells and subtracted from each well containing cells. Experiments were performed with cells from one passage of the same day with controls and test replicates in the same plate.
Data are presented as mean values ± SEM, with (n) referring to the number of wells. IC50 values defined as the concentration of platinum agent required to inhibit uptake of ASP^+ by 50% and EC50 values used to assess cell viability were obtained by sigmoidal concentration-response curve fitting using GraphPad Prism, Version 5.3 (GraphPad Software, San Diego, USA). […] For multiple comparisons, ANOVA with Bonferroni post-test was used. A P-value < 0.05 was considered statistically significant.

[3] = tested on: HEK293 hMATE1 cells; test: MTT cell viability, HEK293 hMATE1 cells; type: cell-based, human; conditions: HEK293 hMATE1, 100 μM phenanthriplatin
Experimental: A modified 3-(4,5-dimethylthiazol-2-yl)-2,5-diphenyltetrazolium bromide (MTT) assay (Mosmann, [1983]) was used to test the chemosensitivity of cells to phenanthriplatin and, in some experiments, to cisplatin by determining the glycolysis rate via the reduction of the yellow tetrazolium salt MTT to a purple formazan dye, as previously described (Wehe et al., [2014]). Briefly, after growing for 24 h in the incubator, cells expressing or not hOCT2, hMATE1, hMATE2 or Ctr1 were treated for 10 min with platinum derivatives. Control cells were incubated with drug-free complete cell culture medium. Afterwards, the medium was carefully removed and replaced by 200 μL of fresh complete cell culture medium. After incubation for another 24 h, 10 μL of MTT solution containing 5 mg/mL of the dye were added to each well, and the cells were again incubated for 3 h. The medium was then removed and 100 μL of lysis buffer containing 10% (w/v) sodium dodecyl sulfate and 40% (v/v) dimethylformamide was added to each well. The plates were shaken for 10 min to destroy the cell structure and dissolve the blue formazan dye (Furchert et al., [2007]; Wehe et al., [2014]). Finally, the absorbance was measured at 590 nm using an automated microtiter plate reader (Infinite M200; Tecan, Männedorf, Switzerland). The percentage of viable cells in the untreated controls was compared to that for the various treatments. […]

[4] = tested on: Ctr1^+/+ MEFs; test: MTT cell viability, Ctr1+/+ MEFs; type: cell-based, mouse
Experimental: (§1) A modified 3-(4,5-dimethylthiazol-2-yl)-2,5-diphenyltetrazolium bromide (MTT) assay (Mosmann, [1983]) was used to test the chemosensitivity of cells to phenanthriplatin and, in some experiments, to cisplatin by determining the glycolysis rate via the reduction of the yellow tetrazolium salt MTT to a purple formazan dye, as previously described (Wehe et al., [2014]). Briefly, after growing for 24 h in the incubator, cells expressing or not hOCT2, hMATE1, hMATE2 or Ctr1 were treated for 10 min with platinum derivatives. Control cells were incubated with drug-free complete cell culture medium. Afterwards, the medium was carefully removed and replaced by 200 μL of fresh complete cell culture medium. After incubation for another 24 h, 10 μL of MTT solution containing 5 mg/mL of the dye were added to each well, and the cells were again incubated for 3 h. The medium was then removed and 100 μL of lysis buffer containing 10% (w/v) sodium dodecyl sulfate and 40% (v/v) dimethylformamide was added to each well. The plates were shaken for 10 min to destroy the cell structure and dissolve the blue formazan dye (Furchert et al., [2007]; Wehe et al., [2014]). Finally, the absorbance was measured at 590 nm using an automated microtiter plate reader (Infinite M200; Tecan, Männedorf, Switzerland). The percentage of viable cells in the untreated controls was compared to that for the various treatments. Experiments carried out with DAOY and UW228 cells followed a similar protocol except that these cells were incubated for 24 h with phenanthriplatin.

[5] = tested on: HEK 293 hOCT2 cells; test: MTT cell viability, HEK 293 hOCT2 cells; type: cell-based, human; conditions: 10 min
Experimental: as §1

pIC50 [1]: 5.70
logIC50 (logEC50) ± SEM for inhibition of ASP+ uptake [1]: −5.64 ± 0.05
pIC50 [2]: 4.00
logIC50 (logEC50) ± SEM for inhibition of ASP+ uptake [2]: −3.99 ± 0.21
Compound: N.N.[Cl][Pt+].c1ccc2c(c1)cnc1ccccc12 [phenanthriplatin, cis-[Pt(NH3)2Cl(phenanthridine)]^+]
Cell viability (MTT) [3]: induces significant cell toxicity
Cell viability (MTT) ([4]; 1 mM, 10 min): toxic
Cell viability (MTT) ([4]; lower concentrations (<1 mM)): did not change the cell viability
Cell viability (MTT) ([5]; HEK 293 hOCT2, 10 μM phenanthriplatin + 100 μM cimetidine): reduced upon co-incubation of phenanthriplatin with cimetidine
Cell viability (MTT) ([5]; HEK 293 hOCT2, 10 μM phenanthriplatin): significant phenanthriplatin toxicity
